Values joined by “and” are separate entries in the source; they are usually repeats but may differ in a detail not shown here. Equal entries are not always repeated. After the bases stand the sugars from the 5' end (letter, count) and the backbone: PS all phosphorothioate, else s phosphorothioate and o phosphodiester by linkage. Methylation of C is not given here. e = 2'-O-(2-methoxyethyl) (MOE); k = constrained ethyl (cEt); d = 2'-deoxy (DNA)
target: IRF4; details: ASO, MM.1R, 1 µM

Going from “CTCTATAGTGTTCCAG (sugars kkdddddddddkekek, PS)” to TATACATTGAGGCATA (sugars k3 d10 k3, PS), the target mRNA inhibition falls from 22% to 7%.

Compared with “TACTGCTTGAGGTTTT (sugars kkddddddddddkeke, PS)”, TGCAGCACCGTGGTGC (sugars k3 d10 k3, PS) is lower in target mRNA inhibition: 11% for the first, -1% for the second.

Compared with AGATGCGGAGGTTCCT (sugars k3 d10 k3, PS), “AGTATGAGAAACGGCC (sugars kkdddddddddkdkdk, PS)” is lower in target mRNA inhibition: 32% for the first, 6% for the second.

First: GGAAGTTTACACTGGA (sugars kddddddddddkekek, PS)
Second: GAAGCATTTTATCATC (sugars kkdddddddddkekek, PS)
The target mRNA inhibition of the first is higher: 33% for the first, -20% for the second.

For TGTCACCTGGCAACCT (sugars k3 d10 k3, PS), the target mRNA inhibition was -4%.

With “ATGTTAGCCAATTCCT (sugars kkdddddddddekeke, PS)” the target mRNA inhibition was 27% and 30%.
AGAGTGAGATGCGGAG (sugars k3 d10 k3, PS) was tested, and the target mRNA inhibition was 65% and 63%.
“TACTGTTACCGATGCT (sugars kkdddddddddekeke, PS)” was tested, and the target mRNA inhibition was 22% and 14%.
“GTGTGCTTGCCAAGCC (sugars kddddddddddkekek, PS)” was tested, and the target mRNA inhibition was 40% and 23%.
For “GGCACATCAATGTTTT (sugars kkdddddddddkekek, PS)”, the target mRNA inhibition was 23% and 19%.

same assay, conditions: ASO, SK-MEL-28, 4 µM

Going from GTATGAGAAACGGCCT (sugars k3 d10 k3, PS) to TCACAAAGCGGGTTCA (sugars k3 d10 k3, PS), the target mRNA inhibition falls from 59% to 23%.

Going from ACCAGAATTGCAAGAG (sugars k3 d10 k3, PS) to CCTCAGACTGTGCTGC (sugars k3 d10 k3, PS), the target mRNA inhibition falls from 60% to 30%.

Going from GAACCTGCTGGGCTGG (sugars k4 d8 k4, PS) to TTTACTGTTACCGATG (sugars k3 d10 k3, PS), the target mRNA inhibition rises from 13% to 48%.

First: GGCACAAGCATAAAAG (sugars k3 d10 k3, PS)
Second: CACTGAGGCCTTAATG (sugars k3 d10 k3, PS)
The target mRNA inhibition of the first is lower: 1% for the first, 34% for the second.

Going from AGACAGAGAGTCCGAC (sugars k3 d10 k3, PS) to TAGCAGGGCACGCTCT (sugars k3 d10 k3, PS), the target mRNA inhibition rises from 7% to 31%.

Compared with CGGTAGAGTGAGATGC (sugars k3 d10 k3, PS), AATCAGATGATGTCTA (sugars k4 d8 k4, PS) is lower in target mRNA inhibition: 54% for the first, -13% for the second.

Compared with GCTAGATAGCATTCTT (sugars k3 d10 k3, PS), GAATGCTCTCCATCAA (sugars k3 d10 k3, PS) is lower in target mRNA inhibition: 56% for the first, 45% for the second.

Compared with AGCTGAGCTGATCATC (sugars k3 d10 k3, PS), CAAAACGGACTGGAAC (sugars k3 d10 k3, PS) is lower in target mRNA inhibition: 56% for the first, 16% for the second.

Going from CACGGGAATTTCCATT (sugars k3 d10 k3, PS) to GAGATAGGAAGCACTG (sugars k3 d10 k3, PS), the target mRNA inhibition falls from 71% to 48%.

First: ATAAAGACCTTAACCA (sugars k3 d10 k3, PS)
Second: ACTGACTAACAGGGAG (sugars k3 d10 k3, PS)
The target mRNA inhibition of the first is lower: 27% for the first, 49% for the second.

Going from AGGGAACAGATAGTTA (sugars k3 d10 k3, PS) to GGCTAATGAAATGTCA (sugars k3 d10 k3, PS), the target mRNA inhibition rises from 34% to 64%.

Compared with TTAGACATTACTAGAT (sugars k3 d10 k3, PS), CCACTATTCGAGAGAA (sugars k3 d10 k3, PS) is higher in target mRNA inhibition: 45% for the first, 57% for the second.

Going from CAGAAAATATGTAACG (sugars k3 d10 k3, PS) to CCACGAGGCACCGCAC (sugars k3 d10 k3, PS), the target mRNA inhibition falls from 22% to -19%.

Going from CATTACGAGAGGGTCT (sugars k3 d10 k3, PS) to TTATTTGTGGCTCAAC (sugars k3 d10 k3, PS), the target mRNA inhibition falls from 44% to 18%.

With ACTGTTTTAAGAGGCG (sugars k3 d10 k3, PS) the target mRNA inhibition was 68% and 70%.

target: MALAT1; details: ASO, A431, 0.005 µM

Going from TTGAACCCCGTCCTGG (sugars k3 d10 k3, PS) to TTACACCTTGAGTCAT (sugars k3 d10 k3, PS), the target mRNA inhibition rises from 12% to 21%.

Going from GCTACCATCAGAAGAA (sugars k3 d10 k3, PS) to GTATAGTTTACCACCT (sugars k3 d10 k3, PS), the target mRNA inhibition falls from 22% to 9%.

First: CAGTAGGTATAGTTTA (sugars k3 d10 k3, PS)
Second: GTCCAATGCAAAAACA (sugars k3 d10 k3, PS)
The target mRNA inhibition of the first is lower: -17% for the first, -5% for the second.

Going from GGTTACCATAAGTAAG (sugars k3 d10 k3, PS) to CCATAATTGTAGTTAA (sugars k3 d10 k3, PS), the target mRNA inhibition falls from 37% to 7%.

First: AAATTGCACTCGCTCC (sugars k3 d10 k3, PS)
Second: AATTAATGCACTGGTA (sugars k3 d10 k3, PS)
The target mRNA inhibition of the first is higher: 28% for the first, 19% for the second.

Compared with TTGCCGACCTCACGGA (sugars k3 d10 k3, PS), GAGCCAAGCACTCATA (sugars k3 d10 k3, PS) is lower in target mRNA inhibition: 30% for the first, 6% for the second.

Going from TGAAGTCAAGACAACT (sugars k3 d10 k3, PS) to TAGAGCTACTTAGCTG (sugars k3 d10 k3, PS), the target mRNA inhibition rises from 1% to 18%.

Going from AATCGCCATGGAAAGC (sugars k3 d10 k3, PS) to CTGGAATGGCCAGCCT (sugars k3 d10 k3, PS), the target mRNA inhibition rises from -4% to 15%.

Going from CTCAAATGCCTATCTT (sugars k3 d10 k3, PS) to TTTACTTTCCATTACG (sugars k3 d10 k3, PS), the target mRNA inhibition falls from 19% to 16%.

Compared with ACCCCCGGAACTTTTA (sugars k3 d10 k3, PS), TCTACAAGTTACATGT (sugars k3 d10 k3, PS) is higher in target mRNA inhibition: 9% for the first, 23% for the second.

Compared with CTGCTACCTTCATCAC (sugars k3 d10 k3, PS), TGAAAACCCACTCTTG (sugars k3 d10 k3, PS) is lower in target mRNA inhibition: 39% for the first, 0% for the second.

CCTGGTTAGGTATGAG (sugars k3 d10 k3, PS) and TACTTGCCAACAGAAC (sugars k3 d10 k3, PS) are the same in target mRNA inhibition: 19% for the first, 19% for the second.

Compared with TCCTGCGACTTGCTCC (sugars k3 d10 k3, PS), GACAGATTAGTAGTCA (sugars k3 d10 k3, PS) is lower in target mRNA inhibition: 15% for the first, -12% for the second.

Compared with TATCACTCAGCTGGAT (sugars k3 d10 k3, PS), CAAAACCCCCGGAACT (sugars k3 d10 k3, PS) is lower in target mRNA inhibition: 34% for the first, 0% for the second.

Compared with AGATAATGTTCTCATC (sugars k3 d10 k3, PS), AGGGCTTTACTTTCCA (sugars k3 d10 k3, PS) is lower in target mRNA inhibition: 11% for the first, -5% for the second.

First: AGTGTGATAGTTCAGG (sugars k3 d10 k3, PS)
Second: TTTATAGACCCCTGAC (sugars k3 d10 k3, PS)
The target mRNA inhibition of the first is lower: 7% for the first, 22% for the second.

CAACCTCCGTCATGTT (sugars k3 d10 k3, PS) and GCTTGACAAGCAATTA (sugars k3 d10 k3, PS) are the same in target mRNA inhibition: 35% for the first, 35% for the second.

Compared with TTCGCCTTCCCGTACT (sugars k3 d10 k3, PS), AAAAGTAGTTCTTCGG (sugars k3 d10 k3, PS) is lower in target mRNA inhibition: 63% for the first, 18% for the second.

Going from GGATAAAAGCAGCTCC (sugars k3 d10 k3, PS) to TCAATCACAAATACGA (sugars k3 d10 k3, PS), the target mRNA inhibition falls from 32% to 30%.

Going from ATACTTCATTACCCCA (sugars k3 d10 k3, PS) to GAACTATCACAATTCT (sugars k3 d10 k3, PS), the target mRNA inhibition falls from 50% to 3%.

First: CTTGACAAGCAATTAA (sugars k3 d10 k3, PS)
Second: AAGAGCATTGGAGATC (sugars k3 d10 k3, PS)
The target mRNA inhibition of the first is lower: 30% for the first, 33% for the second.

First: GTGGCCTTGGCACACT (sugars k3 d10 k3, PS)
Second: CTCTTCTGATAACGAA (sugars k3 d10 k3, PS)
The target mRNA inhibition of the first is lower: -10% for the first, 23% for the second.

First: AAATACGACTGCTTAA (sugars k3 d10 k3, PS)
Second: CAGCTAAGATAGCAGC (sugars k3 d10 k3, PS)
The target mRNA inhibition of the first is higher: 22% for the first, 8% for the second.

Going from TCCAAGAACTAGCACC (sugars k3 d10 k3, PS) to ATGGAGGTATGACATA (sugars k3 d10 k3, PS), the target mRNA inhibition rises from -5% to 20%.

First: CACGGAAATTTTTCTA (sugars k3 d10 k3, PS)
Second: AGTCTCGGGCTGCAGG (sugars k3 d10 k3, PS)
The target mRNA inhibition of the first is higher: 8% for the first, 3% for the second.

First: TGTCTAAGAGGTTATT (sugars k3 d10 k3, PS)
Second: GAGAACAACTCGCATC (sugars k3 d10 k3, PS)
The target mRNA inhibition of the first is lower: 10% for the first, 20% for the second.

Going from TACCAACCACTCGCTT (sugars k3 d10 k3, PS) to GCCGCCTTTGTGAGGG (sugars k3 d10 k3, PS), the target mRNA inhibition rises from 1% to 25%.

Going from CAAGGATCCAAGCTAC (sugars k3 d10 k3, PS) to TTATCTGTTAACAGCT (sugars k3 d10 k3, PS), the target mRNA inhibition rises from 19% to 31%.

Compared with TCGATGGAAAAATTTC (sugars k3 d10 k3, PS), AAGCACTTATCCCTAA (sugars k3 d10 k3, PS) is lower in target mRNA inhibition: 30% for the first, 25% for the second.

First: GATTCACTGAATCCAC (sugars k3 d10 k3, PS)
Second: CCTCAGTACGAAACTC (sugars k3 d10 k3, PS)
The target mRNA inhibition of the first is lower: 8% for the first, 16% for the second.

First: ATACGACTGCTTAAAA (sugars k3 d10 k3, PS)
Second: TGGCCCTTCGCATACG (sugars k3 d10 k3, PS)
The target mRNA inhibition of the first is lower: 20% for the first, 28% for the second.

CTTCAGACAAGATTCA (sugars k3 d10 k3, PS) gave a target mRNA inhibition of 24%.

GCATTACAGTTCTTGA (sugars k3 d10 k3, PS) was tested, and the target mRNA inhibition was 72% and 75%.
For CAGTGCTATTTTATCC (sugars k3 d10 k3, PS), the target mRNA inhibition was 78% and 70%.
For CTCAATTTGGCTATCA (sugars k3 d10 k3, PS), the target mRNA inhibition was 60% and 80%.
CTCATTTATTTCGGCT (sugars k3 d10 k3, PS) was tested, and the target mRNA inhibition was 78% and 93%.
With TCTCAGGGTTATGCTT (sugars k3 d10 k3, PS) the target mRNA inhibition was 59% and 81%.
With GAAGTGTACTATCCCA (sugars k3 d10 k3, PS) the target mRNA inhibition was 72% and 93%.

From the OligoGym collection
